Assays:
HOP62 [1] = details: HOP62 transfected with Gli1 (efficiency approximately 25%) compared with HOP62 expressing an insertless expression vector
Description: Results from DTP analysis of the NCI-60 screen were independently validated with each cell line to determine which NSCLC cell lines required Hedgehog activity to proliferate.

TK-10 = experiment: NCI-60 panel screen, growth inhibition; format: cell-based, human; details: Renal
Description: (§1) The NCI-60 panel of cell lines includes cells derived from melanoma, leukemia, and cancers of the lung, central nervous system, kidney, ovary, colon, breast and prostate. Advantageously, the NCI-60 panel has been screened with a plurality of compounds with the drug concentration resulting in 50% growth inhibition (GI50 determined for each cell line, so that a distinct “fingerprint” signature has been created for each small-molecule tested. Further, DNA microarray analyses have been performed on the NCI-60 panel, allowing for gene expression profile comparisons between drug-sensitive cell lines and drug-insensitive cell lines in response to a particular agent.
(§2) Results from the NCI-60 panel screen highlighted the important role that the Hedgehog pathway plays in breast and prostate cancer (Table 1). […] These findings underscore the broad importance of Hedgehog signaling in carcinogenesis.

HL-60 = experiment: NCI-60 panel screen, growth inhibition; format: cell-based, human; details: Leukemia
Description: as §1, §2

ACHN = experiment: NCI-60 panel screen, growth inhibition; format: cell-based, human; details: Renal
Description: as §1, §2

SK-MEL-28 = experiment: NCI-60 panel screen, growth inhibition; format: cell-based, human; details: Melanoma
Description: as §1, §2

HCT-116 = experiment: NCI-60 panel screen, growth inhibition; format: cell-based, human; details: Colon
Description: as §1, §2

SF-268 = experiment: NCI-60 panel screen, growth inhibition; format: cell-based, human; details: Central Nervous System
Description: as §1, §2

SR = experiment: NCI-60 panel screen, growth inhibition; format: cell-based, human; details: Leukemia
Description: as §1, §2

BT-549 = experiment: NCI-60 panel screen, growth inhibition; format: cell-based, human; details: Breast
Description: as §1, §2

K-562 = experiment: NCI-60 panel screen, growth inhibition; format: cell-based, human; details: Leukemia
Description: as §1, §2

MDA MB-435 = experiment: NCI-60 panel screen, growth inhibition; format: cell-based, human; details: Breast
Description: as §1, §2

MOLT-4 = experiment: NCI-60 panel screen, growth inhibition; format: cell-based, human; details: Leukemia
Description: as §1, §2

RXF 393 = experiment: NCI-60 panel screen, growth inhibition; format: cell-based, human; details: Renal
Description: as §1, §2

PC-3 = experiment: NCI-60 panel screen, growth inhibition; format: cell-based, human; details: Prostate
Description: as §1, §2

786-0 = experiment: NCI-60 panel screen, growth inhibition; format: cell-based, human; details: Renal
Description: as §1, §2

LOX IMVI = experiment: NCI-60 panel screen, growth inhibition; format: cell-based, human; details: Melanoma
Description: as §1, §2

OVCAR-5 = experiment: NCI-60 panel screen, growth inhibition; format: cell-based, human; details: Ovarian
Description: as §1, §2

UACC-62 = experiment: NCI-60 panel screen, growth inhibition; format: cell-based, human; details: Melanoma
Description: as §1, §2

SNB-75 = experiment: NCI-60 panel screen, growth inhibition; format: cell-based, human; details: Central Nervous System
Description: as §1, §2

IGROV1 = experiment: NCI-60 panel screen, growth inhibition; format: cell-based, human; details: Ovarian
Description: as §1, §2

A549 = experiment: NCI-60 panel screen, growth inhibition; format: cell-based, human; details: NSCLC
Description: as §1, §2

SF-539 = experiment: NCI-60 panel screen, growth inhibition; format: cell-based, human; details: Central Nervous System
Description: as §1, §2

UACC-257 = experiment: NCI-60 panel screen, growth inhibition; format: cell-based, human; details: Melanoma
Description: as §1, §2

MCF7 = experiment: NCI-60 panel screen, growth inhibition; format: cell-based, human; details: Breast
Description: as §1, §2

EKVX = experiment: NCI-60 panel screen, growth inhibition; format: cell-based, human; details: NSCLC
Description: as §1, §2

HCT-15 = experiment: NCI-60 panel screen, growth inhibition; format: cell-based, human; details: Colon
Description: as §1, §2

HT29 = experiment: NCI-60 panel screen, growth inhibition; format: cell-based, human; details: Colon
Description: as §1, §2

SN12C = experiment: NCI-60 panel screen, growth inhibition; format: cell-based, human; details: Renal
Description: as §1, §2

U251 = experiment: NCI-60 panel screen, growth inhibition; format: cell-based, human; details: Central Nervous System
Description: as §1, §2

HS 578T = experiment: NCI-60 panel screen, growth inhibition; format: cell-based, human; details: Breast
Description: as §1, §2

SK-MEL-2 = experiment: NCI-60 panel screen, growth inhibition; format: cell-based, human; details: Melanoma
Description: as §1, §2

SNB-19 = experiment: NCI-60 panel screen, growth inhibition; format: cell-based, human; details: Central Nervous System
Description: as §1, §2

UO-31 = experiment: NCI-60 panel screen, growth inhibition; format: cell-based, human; details: Renal
Description: as §1, §2

DU-145 = experiment: NCI-60 panel screen, growth inhibition; format: cell-based, human; details: Prostate
Description: as §1, §2

NCI-H226 = experiment: NCI-60 panel screen, growth inhibition; format: cell-based, human; details: NSCLC
Description: as §1, §2

RPMI-8226 = experiment: NCI-60 panel screen, growth inhibition; format: cell-based, human; details: Leukemia
Description: as §1, §2

HOP62 [2] = experiment: NCI-60 panel screen, growth inhibition; format: cell-based, human; details: NSCLC
Description: as §1, §2

MDA-MB-231/ATCC = experiment: NCI-60 panel screen, growth inhibition; format: cell-based, human; details: Breast
Description: as §1, §2

SF-295 = experiment: NCI-60 panel screen, growth inhibition; format: cell-based, human; details: Central Nervous System
Description: as §1, §2

NCI-H460 = experiment: NCI-60 panel screen, growth inhibition; format: cell-based, human; details: NSCLC
Description: as §1, §2

NCI-H322M = experiment: NCI-60 panel screen, growth inhibition; format: cell-based, human; details: NSCLC
Description: as §1, §2

NCI/ADR-RES = experiment: NCI-60 panel screen, growth inhibition; format: cell-based, human; details: Breast
Description: as §1, §2

CAKI-1 = experiment: NCI-60 panel screen, growth inhibition; format: cell-based, human; details: Renal
Description: as §1, §2

SW-620 = experiment: NCI-60 panel screen, growth inhibition; format: cell-based, human; details: Colon
Description: as §1, §2

KM12 = experiment: NCI-60 panel screen, growth inhibition; format: cell-based, human; details: Colon
Description: as §1, §2

COLO 205 = experiment: NCI-60 panel screen, growth inhibition; format: cell-based, human; details: Colon
Description: as §1, §2

NCI-H522 = experiment: NCI-60 panel screen, growth inhibition; format: cell-based, human; details: NSCLC
Description: as §1, §2

NCI-H23 = experiment: NCI-60 panel screen, growth inhibition; format: cell-based, human; details: NSCLC
Description: as §1, §2

SK-MEL-5 = experiment: NCI-60 panel screen, growth inhibition; format: cell-based, human; details: Melanoma
Description: as §1, §2

OVCAR-8 = experiment: NCI-60 panel screen, growth inhibition; format: cell-based, human; details: Ovarian
Description: as §1, §2

Gli1 = Gli1 knock-down by siRNA in A549 cells; format: cell-based, human; details: A549 cells transfected with siRNA

## CC1=C2C[C@H]3[C@@H](CC=C4C[C@@H](O)CC[C@@]43C)[C@@H]2CC[C@]12O[C@@H]1C[C@H](C)CN[C@H]1[C@H]2C [Cyclopamine, cyclopamine]
HOP62 [1]
  Growth inhibitory activity in Gli1-transfected cells versus insertless expression vector: less growth inhibitory activity

## Cc1nn(-c2ccccc2)c(C)c1/C=N/N1CCN(Cc2ccccc2)CC1 [SANT1]
TK-10
  −log [GI50]: 4.54
HL-60
  −log [GI50]: 4.54
ACHN
  −log [GI50]: 4.28
SK-MEL-28
  −log [GI50]: 4.09
HCT-116
  −log [GI50]: 4.55
SF-268
  −log [GI50]: 4.42
SR
  −log [GI50]: 4.86
BT-549
  −log [GI50]: 4.32
K-562
  −log [GI50]: 4.51
MDA MB-435
  −log [GI50]: 4.00
MOLT-4
  −log [GI50]: 4.57
RXF 393
  −log [GI50]: 4.00
PC-3
  −log [GI50]: 4.60
786-0
  −log [GI50]: 4.64
LOX IMVI
  −log [GI50]: 4.36
OVCAR-5
  −log [GI50]: 4.00
UACC-62
  −log [GI50]: 4.47
SNB-75
  −log [GI50]: 4.00
IGROV1
  −log [GI50]: 5.08
A549
  −log [GI50]: 4.00
SF-539
  −log [GI50]: 4.12
UACC-257
  −log [GI50]: 4.20
MCF7
  −log [GI50]: 4.51
EKVX
  −log [GI50]: 4.00
HCT-15
  −log [GI50]: 4.52
HT29
  −log [GI50]: 4.37
SN12C
  −log [GI50]: 4.00
U251
  −log [GI50]: 4.17
HS 578T
  −log [GI50]: 4.00
SK-MEL-2
  −log [GI50]: 4.22
SNB-19
  −log [GI50]: 4.00
UO-31
  −log [GI50]: 4.18
DU-145
  −log [GI50]: 4.02
NCI-H226
  −log [GI50]: 4.56
RPMI-8226
  −log [GI50]: 4.70
HOP62 [2]
  −log [GI50]: 4.79
MDA-MB-231/ATCC
  −log [GI50]: 4.65
SF-295
  −log [GI50]: 4.00
NCI-H460
  −log [GI50]: 4.47
NCI-H322M
  −log [GI50]: 5.08
NCI/ADR-RES
  −log [GI50]: 4.30
CAKI-1
  −log [GI50]: 4.00
SW-620
  −log [GI50]: 4.00
KM12
  −log [GI50]: 4.50
COLO 205
  −log [GI50]: 4.39
NCI-H522
  −log [GI50]: 4.11
NCI-H23
  −log [GI50]: 4.38
SK-MEL-5
  −log [GI50]: 4.73
OVCAR-8
  −log [GI50]: 4.00

## SEQ ID NO:9: siRNA having the desired Gli1 knock-down activity (Sanchez, et al. (2004)) (AACUCCACAGGCAUACAGGAU; chemistry not given here)
Gli1
  Reduction of Gli1 levels: approximately 90%
